Experimental findings from ChEMBL document CHEMBL1201862, “PubChem BioAssay data set” (2004) are described below.

Experiment in all cases: inhibition of tumour cell growth, NCI panel, 48 h
In assay [1] the test system is A498.
Assay [2] deals with CAKI-1.
In assay [3] the test system is DU-145.
Assay [4] has as its system EKVX.
The test system of assay [5] is HCC 2998.
In assay [6] the test system is HCT-15.
Assay [7] deals with HL-60.
Assay [8] concerns HOP-62.
The subject of assay [9] is IGROV-1.
Assay [10] has as its system MDA-MB-231.
In assay [11] the test system is MDA-MB-435.
Assay [12] concerns NCI-H460.
Assay [13] relates to OVCAR-3.
In assay [14] the test system is RPMI-8226.
Assay [15] has as its system SK-MEL-2.
The subject of assay [16] is SNB-19.
Assay [17] relates to SNB-75.
Assay [18] relates to SR.
Assay [19] deals with T47D.
In assay [20] the test system is SN12C.

SMILES strings stand for the structures.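 Method: 48-hour compound exposure of cells in 96-well plates, five concentrations, linear interpolation of endpoints. GI50 is the concentration that inhibits growth by half.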 Active and inactive are the calls of the source. Cut-off read from the data, not from the text of the source: active = GI50 up to about 1.1 µM and inactive = higher. Residues, ends and D or L forms follow the SMILES beside them. Groups on a side chain read outwards from the residue. *: point of attachment. Cbz = O=C(OCc1ccccc1)*; Boc = CC(C)(C)OC(=O)* Some results are limits rather than exact numbers.

With `COc1ccc(/C(C)=C2\CCCN(Cc3ccccc3)C2)cc1`, the GI50 in assay [1] was 33.7 µM (inactive); in [2] it was 22.6 µM (inactive); in assay [3], 34.6 µM (inactive); in assay [4] it was 37.1 µM (inactive); in assay [5] it was 21 µM (inactive); in assay [6], 20.3 µM. Moreover, the GI50 in assay [7] is 23.2 µM (inactive); in assay [8] it was 18.3 µM (inactive); in assay [9] it was 28.2 µM (inactive); in [10] it was 21.4 µM (inactive); in assay [11] it was 20.7 µM (inactive); in [12], 22.4 µM (inactive). Moreover, the GI50 was 18.6 µM (inactive) in assay [13]; 18.6 µM (inactive) in [14]; 19.1 µM (inactive) in assay [15]; 22.9 µM (inactive) in assay [16]; 24.2 µM (inactive) in assay [17]; 20.4 µM (inactive) in assay [18]. In addition, in assay [19], the GI50 is 22.5 µM (inactive).
For `Cc1cccc2c(N)c3cccc(C(=O)NCC[N+]4(Cc5ccc([N+](=O)[O-])cc5)CCOCC4)c3nc12`, the GI50 in assay [1] is 42.2 µM (inactive); in assay [2], > 100 µM (inactive); in [3], 27.3 µM (inactive); in assay [4], 36.2 µM (inactive); in [5], 12.3 µM (inactive); in assay [6], 45.1 µM. Further, the GI50 in [7] was 18.2 µM (inactive); in assay [8] it was 25.7 µM (inactive); in [9], 20.6 µM (inactive); in assay [10] it was > 60.1 µM (inactive); in [11], 80.5 µM (inactive); in assay [12], 14.6 µM (inactive). Besides, the GI50 in assay [13] is 61.1 µM (inactive); in assay [14] it was 26.1 µM (inactive); in [15] it was > 79.1 µM (inactive); in [20] it was 3.99 µM (inactive); in [16] it was 18.2 µM (inactive); in assay [17], 16 µM (inactive). Besides, the results for the GI50 in assay [18] and in assay [19] were 20.8 µM (inactive) and 29.2 µM (inactive), respectively.
Regarding `CCOC(=O)C(Cc1ccc2c(c1)CCC2)Cc1ccc2c(c1)CCC2`, the GI50 was > 100 µM (inactive) in [1]; > 100 µM (inactive) in [2]; > 100 µM (inactive) in assay [3]; 91 µM (inactive) in assay [4]; 95.9 µM (inactive) in assay [5]; above 100 µM in assay [6]. In addition, the GI50 is 25.9 µM (inactive) in assay [7]; > 100 µM (inactive) in [8]; > 100 µM (inactive) in assay [9]; > 100 µM (inactive) in [10]; 42 µM (inactive) in [11]; > 100 µM (inactive) in assay [12]. Moreover, the GI50 in assay [13] was > 100 µM (inactive); in assay [14] it was 44.4 µM (inactive); in [15], > 100 µM (inactive); in assay [16], > 100 µM (inactive); in [17], > 100 µM (inactive); in assay [18] it was 25.1 µM (inactive). Moreover, in assay [19], the GI50 is 53.1 µM (inactive).
As for `Cc1ccc(/N=N/C(=N/NC(=O)c2ccccc2)c2ccc(N(CCC#N)CCC#N)cc2C)cc1`, the GI50 in [1] was 19.8 µM (inactive); in assay [2] it was > 100 µM (inactive); in [3] it was 43.2 µM (inactive); in assay [4] it was 63.4 µM (inactive); in [5], 24.9 µM (inactive); in assay [6] it was 25.3 µM. Moreover, the GI50 in [7] is 12.2 µM (inactive); in assay [8], 41.6 µM (inactive); in [9], 29.3 µM (inactive); in assay [10], 31.4 µM (inactive); in [11], 4.97 µM (inactive); in [12], 20.3 µM (inactive). Also, the GI50 was 12.5 µM (inactive) in [13]; > 100 µM (inactive) in assay [14]; 50.4 µM (inactive) in [15]; 40.8 µM (inactive) in [20]; 35 µM (inactive) in [16]; 32.7 µM (inactive) in [17]. The GI50 was 5.79 µM (inactive) in assay [18] and 37.4 µM (inactive) in assay [19].
Take `O=c1[nH]cnc2c1ncn2C1SC(CO)C(O)C1O` (configuration not stated): the GI50 in assay [1] is > 100 µM (inactive); in assay [2] it was > 100 µM (inactive); in assay [3] it was > 100 µM (inactive); in assay [4], > 100 µM (inactive); in [5], > 100 µM (inactive); in assay [6], above 100 µM. In addition, the GI50 in assay [7], in [8], in assay [9], in [10], in assay [11] and in [12] was > 100 µM (inactive) throughout. Moreover, the GI50 in assay [13], in [14], in assay [15], in assay [20], in assay [16] and in assay [17] was > 100 µM (inactive) in each case. In addition, the GI50 in [18] and in [19] was > 100 µM (inactive) each time.
For the compound `Cc1cc(C)n(-c2nc3ccccc3c(=O)[nH]2)n1`, the GI50 in assay [1] is 23.2 µM (inactive); in assay [2] it was 3.02 µM (inactive); in assay [3], 5.89 µM (inactive); in [4], 5.42 µM (inactive); in assay [5], 14.8 µM (inactive); in assay [6], 2.11 µM. Besides, the GI50 in [7] is 1.32 µM (inactive); in assay [8], 2.29 µM (inactive); in [9], 1.5 µM (inactive); in assay [10] it was 11 µM (inactive); in assay [11], 1.86 µM (inactive); in assay [12], 1.21 µM (inactive). The GI50 in assay [13] was 4.11 µM (inactive); in assay [14], 3.92 µM (inactive); in [15], 8.47 µM (inactive); in [20], 4.34 µM (inactive); in assay [16], 11.9 µM (inactive); in [17] it was 14.1 µM (inactive). Also, the GI50 in assay [18] is 0.906 µM (active); in [19], 11 µM (inactive).
Consider `N#CC(=N)c1ncn(-c2ccc(N)cc2)c1N`, for which the GI50 in [1] is > 100 µM (inactive); in assay [2], > 100 µM (inactive); in [3] it was > 100 µM (inactive); in assay [4] it was > 100 µM (inactive); in assay [5], > 100 µM (inactive); in assay [6] it was above 100 µM. Further, the GI50 in assay [7], in assay [8], in assay [9], in [10], in assay [11] and in assay [12] was > 100 µM (inactive) each time. The GI50 in assay [13], in assay [14], in assay [15], in assay [20], in [16] and in assay [17] was > 100 µM (inactive) throughout. Also, the GI50 in assay [18] and in assay [19] was > 100 µM (inactive) each time.
Regarding `Nc1cc2c3c(c1)Oc1cc(N)cc4c1C3c1c(cc(N)cc1O4)O2`, the GI50 in assay [1] was 63.8 µM (inactive); in [2], 14.4 µM (inactive); in assay [3], 3.03 µM (inactive); in assay [4], 11.6 µM (inactive); in [5], 34.9 µM (inactive); in assay [6], 18.3 µM. The GI50 in assay [7] is 23.9 µM (inactive); in assay [8] it was 25.7 µM (inactive); in assay [9], 10.4 µM (inactive); in [10], 16.2 µM (inactive); in assay [11] it was 29 µM (inactive); in assay [12] it was 30.3 µM (inactive). The GI50 in assay [13] was 20.2 µM (inactive); in [14] it was 14.7 µM (inactive); in assay [15], 28.9 µM (inactive); in assay [20], 16.7 µM (inactive); in [16], 37.5 µM (inactive); in assay [17], 19.3 µM (inactive). Moreover, the figures for the GI50 in assay [18] and in assay [19] were 15.5 µM (inactive) and 20.7 µM (inactive), respectively.
Regarding `CCc1ccc(/C=C\c2cc(OC)c(OC)c(OC)c2)cc1`, the GI50 is 0.014 µM (active) in assay [1]; 0.038 µM (active) in [2]; 0.0303 µM (active) in assay [3]; 0.887 µM (active) in assay [4]; 0.0492 µM (active) in [5]; 0.0449 µM in assay [6]. Moreover, the GI50 in [7] is 0.0053 µM (active); in assay [8] it was 0.0531 µM (active); in assay [9] it was 0.0493 µM (active); in assay [10], 0.144 µM (active); in assay [11], 0.00204 µM (active); in assay [12], 0.0235 µM (active). Further, the GI50 in [13] was 0.00843 µM (active); in [14], 0.0127 µM (active); in [15] it was 0.112 µM (active); in assay [20], 0.0159 µM (active); in [16], 0.0148 µM (active); in assay [17], 0.0234 µM (active). Further, the GI50 was 0.00247 µM (active) in assay [18] and 0.17 µM (active) in assay [19].
As for `CC(C)CC(NC(=O)OCc1ccccc1)C(=O)NCCCCC(NC(=O)C(CCCCNC(=O)C(CC(C)C)NC(=O)OCc1ccccc1)NC(=O)C(CCCCNC(=O)C(CC(C)C)NC(=O)OCc1ccccc1)NC(=O)C(CCCCNC(=O)C(CC(C)C)NC(=O)OCc1ccccc1)NC(=O)OC(C)(C)C)C(=O)O` (configuration not stated) (Boc-K([Leu-Cbz])K([Leu-Cbz])K([Leu-Cbz])K([Leu-Cbz])-OH; configuration not given here), the GI50 in assay [1] was > 25 µM (inactive); in assay [2], > 25 µM (inactive); in [3], > 25 µM (inactive); in [5], > 25 µM (inactive); in assay [6] it was above 25 µM; in [7], > 25 µM (inactive). Besides, the GI50 in assay [8], in [9], in [10], in assay [11], in [12] and in [13] was > 25 µM (inactive) in each case. For the same compound, the GI50 in assay [14], in assay [15], in assay [20], in [16], in [17] and in assay [18] was > 25 µM (inactive) throughout. Also, the GI50 in [19] is > 25 µM (inactive).
